Patent publication US20220331341A1, “TREATMENT COMPRISING THE USE OF FXR AGONISTS” (Novartis AG, priority 2019, published 2022)

Experiments:
[1] = tested on: patients with biopsy-proven NASH and fibrosis stages 2-3; experiment: FLIGHT-FXR (NCT02855164) Part C interim analysis at week 12; format: in vivo, human; settings: for ALT, LS mean absolute change from baseline to Week 12 (SE) / Body weight, LS mean absolute change from baseline to Week 12 (SE) / GGT, LS mean absolute change from baseline to Week 12 (SE): full analysis set
Text: Prespecified endpoints assessed at week 12 included overall safety and changes in alanine aminotransferase (ALT), hepatic fat fraction (HFF), gamma glutamyl transferase (GGT), and body weight.

[2] = tested on: HF/NASH mice (hepatic oxidative stress and mitochondrial function); experiment: Dietary HF/NASH mouse model, tropifexor treatment for the last 12 of 20 weeks; format: in vivo, C57BL/6J mice
Text: Molecular, structural and functional analysis was applied to assess oxidative stress and mitochondria function in NASH model.
Similar to human disease, transition from steatosis to NASH with fibrosis in NASH mice is associated with mitochondrial dysfunction characterized by structural and functional alterations. Decline in hepatic mitochondrial function is manifested in HF/NASH mice by decreased activities of tricarboxylic acid (TCA) cycle and electron transport chain (ETC) as well as diminished ATP production. This is accompanied by oxidative damage and depletion of antioxidant enzymes. […] This was manifested by a marked increase in mitochondrial function with concomitant restoration of oxidative balance associated with increased antioxidant defenses and decreased oxidative stress.

NASH patients = experiment: Study CLJN452A2202 Parts A and B, 12 weeks; format: in vivo, human

**Q.** `O=C(O)c1cc(F)c2nc(N3C4CC[C@H]3CC(OCc3c(-c5ccccc5OC(F)(F)F)noc3C3CC3)C4)sc2c1` (stereo partly drawn) [Tropifexor, 2-[(1R,3r,5S)-3-({5-cyclopropyl-3-[2-(trifluoromethoxy)phenyl]-1,2-oxazol-4-yl}methoxy)-8-azabicyclo[3.2.1]octan-8-yl]-4-fluoro-1,3-benzothiazole-6-carboxylic acid] was tested. Which “Frequency of serious adverse events” value ([1]; 140 μg and 200 μg vs placebo) did it give?
**A.** low and comparable across groups

**Q.** And the “Low density lipoprotein-cholesterol (LDL-C)” value ([1]; 140 μg and 200 μg, 12 weeks)?
**A.** dose-related increase

**Q.** And the “Share of patients with pruritus whose events were of mild (Grade 1) severity” value ([1]; both Tropifexor groups (140 μg and 200 μg))?
**A.** > 60%

**Q.** What about the “Treatment discontinuation rate due to pruritus” value ([1]; tropifexor 140 μg) of the same molecule?
**A.** 2%

**Q.** And the “ALT, LS mean absolute change from baseline to Week 12 (SE)” value ([1]; tropifexor 140 μg once daily)?
**A.** −20.1 (4.57) U/L

**Q.** And the “Body weight, LS mean absolute change from baseline to Week 12 (SE)” value ([1]; tropifexor 140 μg once daily)?
**A.** −2.46 (0.38) kg

**Q.** And the “GGT, LS mean absolute change from baseline to Week 12 (SE)” value ([1]; tropifexor 140 μg once daily)?
**A.** −39.2 (3.70) U/L

**Q.** And the “Prespecified endpoints at week 12” value ([1]; tropifexor 200 μg)?
**A.** met

**Q.** And the “Treatment discontinuation rate due to pruritus” value ([1]; tropifexor 200 μg)?
**A.** 6%

**Q.** And the “ALT, LS mean absolute change from baseline to Week 12 (SE)” value ([1]; tropifexor 200 μg once daily)?
**A.** −23.6 (4.48) U/L

**Q.** And the “Body weight, LS mean absolute change from baseline to Week 12 (SE)” value ([1]; tropifexor 200 μg once daily)?
**A.** −3.20 (0.37) kg

**Q.** What about the “GGT, LS mean absolute change from baseline to Week 12 (SE)” value ([1]; tropifexor 200 μg once daily) of the same molecule?
**A.** −40.9 (3.62) U/L

**Q.** What about the “Liver SOD activity” value ([2]; 0.3 mg/kg) of the same molecule?
**A.** fully restored

**Q.** What about the “GPx activity in serum and liver” value ([2]; 0.9 mg/kg) of the same molecule?
**A.** restored

**Q.** What about the “Liver SOD activity” value ([2]; 0.9 mg/kg) of the same molecule?
**A.** increased above the levels observed in ND mice

**Q.** What about the “Cell death (apoptosis) in liver: cleaved-caspase 3 staining and phospho-p38 protein levels” value ([2]; 20 weeks HF/NASH diet) of the same molecule?
**A.** attenuated cell death in a dose dependent manner

**Q.** And the ATP synthesis ([2]; HF/NASH livers)?
**A.** improving

**Q.** And the “Citrate synthase (CS) activity” value ([2]; HF/NASH livers)?
**A.** dose-dependently restored

**Q.** And the “Complex I and Complex II activities” value ([2]; HF/NASH livers)?
**A.** restoring

**Q.** And the “Content of all five respiratory chain (OXPHOS) proteins” value ([2]; HF/NASH livers, 0.1 mg/kg)?
**A.** full restoration

**Q.** And the “Expression of mitochondrial biogenesis genes (PGC-1a, Nrf1, Tfam)” value ([2]; HF/NASH mice)?
**A.** did not lead to changes

**Q.** And the “Levels of oxidative stress in HF/NASH livers (MDA, 4-HNE, mtDNA)” value ([2]; liver)?
**A.** markedly decreased

**Q.** And the “Antioxidant gene expression (GPx and GST superfamilies)” value ([2]; liver transcriptome)?
**A.** induced

**Q.** And the “Expression of Gpx2, Gst family” value ([2]; liver transcriptome)?
**A.** markedly increased their expression beyond the ND levels

**Q.** And the “Expression of Gpx3, Gpx8” value ([2]; liver transcriptome)?
**A.** restored expression of investigated genes to ND levels

**Q.** And the “Serum levels of γ-glutamyltranspeptidase (GGT)” value ([2]; serum)?
**A.** decreased

**Q.** What about the “Biologic activity (GGT)” value (NASH patients; 10 to 90 μg daily for 12 weeks) of the same molecule?
**A.** clear dose response

**Q.** What about the “Target engagement (FGF19)” value (NASH patients; 10 to 90 μg daily for 12 weeks) of the same molecule?
**A.** clear dose response

**Q.** And the “ALT and hepatic fat fraction compared to placebo” value (NASH patients; all doses (10, 30, 60 and 90 μg), 12 weeks)?
**A.** reduced

**Q.** And the Tolerability (NASH patients; up to 90 μg daily)?
**A.** generally well tolerated
